This is an account of results in publication PMC6631687, “Relevance of In Vitro Metabolism Models to PET Radiotracer Development: Prediction of In Vivo Clearance in Rats from Microsomal Stability Data” (Pharmaceuticals, 2019).

Where two headings read alike, the source gives them in different places.

What is called logP is a log measure of how a compound divides between an organic and an aqueous phase. Low values mean lower lipophilicity, high ones higher lipophilicity. As a reminder, the clearance is the rate of elimination divided by the concentration. As a reminder, the Vd is the apparent volume that relates the amount in the body to the concentration in plasma or blood.

Series [1] is described as follows: Microsomal stability assay (substrate depletion) in rat liver microsomes. It counts as in vitro ADME. The conditions noted are these: male, Sprague Dawley; for half-life at 8 µM: pH 7.4, 8 µM substrate, 0.5 mg/mL protein, triplicate, read-out: In vitro t1/2 (SD); for CLint scaled at 8 µM: pH 7.4, scaled from in vitro t1/2 with fmic, 60 mg protein/g liver, 40 g liver/kg, read-out: CLint (SD), intrinsic clearance. On the procedure:
RLM (Sprague Dawley, male, 20 mg/mL protein concentration) were purchased from Thermo Fisher Scientific/Life Technologies (Darmstadt, Germany). Assay conditions (buffer, microsomal protein concentration, solvent) were evaluated and optimized in a preliminary study. RLM (0.5 mg/mL microsomal protein) and substrate (8 µM CBX, MCBX or CPFPX, 1 mM stock solutions in DMSO) were preincubated for 5 min at 37 °C in HEPES buffer (100 mM, pH 7.4) containing MgCl2 (3.3 mM). Reactions were initiated by addition of preheated NADPH (1.3 mM). Final incubation volume was 1 mL. Aliquots (100 µL) were withdrawn at 0, 2, 5, 10, 15 and 20 min and quenched with an equal volume of methanol/acetonitrile (50:50, v/v, cooled to −20 °C). The samples were mixed on a vortex mixer (1 min, 21 °C) and centrifuged (20,000 rcf, 10 min, 21 °C) to sediment precipitated protein. The supernatants (aliquots of 50 µL) were analyzed on a Knauer smartline HPLC-UV/VIS system (Knauer, Berlin, Germany) equipped with a manual sample injector (Rheodyne type 7125), a 500 µL sample loop and a Kromasil 100-5-C18 (4.6 × 250 mm) analytical column (AkzoNobel, Bohus, Sweden). Chromatography was performed using a mobile phase composition of ACN/H2O/HAc 48:52:0.2 (v/v/v), and with a flow rate of 1 mL/min and a detection wavelength of 275 nm. Experiments were conducted in triplicate.
Substrate depletion was calculated from the area ratios of the analyte peak, using the value at t = 0 min as 100%. Depletion data were fitted to the monoexponential decay model (Equation (1)) to derive in vitro t1/2. (1) C(t)=C0e^−ln2/t1/2t where C0 is the substrate concentration at time t = 0.
(§1) Intrinsic clearance was calculated from in vitro t1/2 using the equation [38]:(2) CLint=ln2/in vitro t1/2 (min)×fmic×ml incubation/mg microsomal protein×mg microsomal protein/g liver weight×g liver/kg body weight where scaling factors of 60 mg of microsomal protein per gram of liver and 40 g of liver tissue per kilogram of body weight were applied.
Background: Microsomes from liver hold many membrane-bound enzymes, among them those of drug oxidation.

A further series in a line: Lipophilicity (log P). The class given is physicochemical. As to the method: Table 1 Metabolic stability of the xanthine A1AR ligands in rat liver microsomes and predicted plasma clearance (CLp). Experiments were conducted in triplicate. fmic, unbound fraction in microsomes; CLint, intrinsic clearance; SD, standard deviation. | column: Log P
Series [2] is described as follows: Prediction of in vivo plasma clearance from microsomal stability data (well-stirred liver model) and prediction accuracy. The class given is in vitro ADME. The conditions noted are these: rat; for CLp Predicted (SD), predicted plasma clearance: well-stirred liver model, corrected for microsomal and plasma protein binding; for Fold Error CL (ratio predicted/observed) / Fold Underprediction CL: predicted vs observed CLp. As to the method: as §1
In vivo clearance in plasma was predicted using the well-stirred liver model:(4) CLp=Q×fp×CLint/Q+fp×CLint where fp is the fraction unbound in plasma and Q is hepatic blood flow with a given value of 55 mL/min/kg for rat.
The individual prediction accuracy was assessed by calculation of fold error (ratio predicted/observed). AFE (Equation (5)) and RMSE (Equation (6)) were used as measures for overall bias and precision. Underprediction was also expressed as fold underprediction, which is the inverse of AFE. (5) AFE=10^1/n∑logpredicted/observed (6) RMSE=1/n∑(predicted−observed)^2 with n, number of predictions.

Series [3] is described as follows: In vivo pharmacokinetics in rat plasma after i.v. administration. Particulars: for clearance / Vd / half-life: iv, single i.v. dose approx. 0.4 nmol, mean plasma curves, triexponential fit; for clearance: read-out: CLp (plasma clearance, in vivo); for Vd: read-out: Vd (volume of distribution); for half-life: read-out: t1/2,term (terminal half-life); for Parent fraction (authentic radiotracer of total plasma radioactivity): rat plasma, 180 min p.i., radio-TLC. On the procedure:
Pharmacokinetic experiments on rats (n = 27) were conducted under isoflurane anesthesia (1.5–2% in oxygen) with continuous monitoring of physiological parameters. Polyethylene catheters (PE 50; filled with heparinized saline) were implanted into the femoral artery for arterial blood sampling and the lateral tail vein for radiotracer application. [^18F]CPFPX, [^18F]MCBX or [^18F]CBX (21 ± 2.5 MBq, 0.39 ± 0.20 nmol) was formulated in physiological saline (1 mL total volume) and administered over 1 min using a syringe pump (model 44, Harvard Apparatus, Holliston, MA, USA). Arterial blood samples (ca. 200 μL) were collected at regular time intervals throughout the 180-min experiment. The total blood sampling volume was kept below 10% of the circulating blood volume of the animal. Plasma was separated by centrifugation (3,000 rcf, 3 min, 21 °C), weighed and measured in a γ-counter (ISOMED 2100, MED Nuklear-Medizintechnik Dresden GmbH, Dresden, Germany) to calculate plasma radioactivity concentration. Fractions of unchanged radiotracer (parent fraction) and radiolabeled metabolites in plasma were assessed by radio-thin layer chromatography (TLC) analysis. Aliquots (45 μL) of plasma were mixed with 3 volumes of methanol/acetonitrile (50:50, v/v, 4 °C), vortexed (1 min, 21 °C) and centrifuged (20,000 rcf, 5 min, 21 C) to sediment precipitated protein. Aliquots (5 μL) of the supernatants were spotted on a TLC plate (SIL G-25, 10 × 20 cm, Macherey-Nagel, Düren, Germany). The TLC plate was developed with ethyl acetate/hexane, 75:25 (v/v), dried and subsequently imaged for 50 min with an electronic autoradiography system (InstantImager, Canberra-Packard, Rüsselsheim, Germany).
PK analysis was performed on decay and metabolite-corrected plasma radioactivity data of 8 ([^18F]CBX, [^18F]CPFPX) or 9 ([^18F]MCBX) individual animals. Data of 2 animals could not be used for PK analysis due to paravenous radiotracer injection. Since interindividual variations in plasma kinetics within the test groups were relatively small, individual plasma data were combined to mean data sets for analysis. Assuming a specific density of 1 g/mL for plasma, radioactivity concentration was calculated and plotted against time. For data visualization, plasma radioactivity concentration was normalized to body weight and amount of injected radioactivity, yielding SUV. PK parameters were derived from the radioactivity concentration-time data via nonlinear regression analysis applying a triexponential model:(7) Cp(t)=A1e^−λ1t+A2e^−λ2t+A3e^−λ3t where Cp is the plasma radioactivity concentration, t is time, A1, A2, and A3 represent the y-intercepts of the distribution/elimination phases of the plasma concentration-time curve and λ1, λ2, and λ3 represent the first-order rate constants of the phases.
Plasma clearance, volume of distribution and terminal half-life were calculated from the model parameters A and λ according to the following equations [44]:(8) CLp=D/∫0∞Cp(t)dt=D/∑i=1nAi/λi (9) Vd=Clp/λ3 (10) t1/2,term=ln 2/λ3 where D is the injected radioactivity and λ3 is the terminal rate constant.

In the case of `CCCn1c(=O)c2[nH]c(C3CCC3)nc2n(CCCF)c1=O` [CBX], in series [1], the half-life at 8 µM was determined as 35.1 min and the CLint scaled at 8 µM amounted to 106 mL/min/kg. This compound also displayed a logP in the series “Lipophilicity (log P)” of 2.19. Moreover, the “CLp Predicted (SD), predicted plasma clearance” value (“CLp Predicted (SD)” for short) in series [2] is listed as 2.72 (0.13) mL/min/kg.
In the case of `CCCn1c(=O)c2nc(C3CCCC3)[nH]c2n(CCCF)c1=O` [CPFPX, reference compound], in series [1], the half-life at 8 µM amounted to 14 min and the CLint scaled at 8 µM was found to be 295 mL/min/kg. The same compound showed a logP in the series “Lipophilicity (log P)” of 2.93. Moreover, in series [2], the “Fold Error CL (ratio predicted/observed)” value is 0.66 and the “CLp Predicted (SD)” value is listed as 4.70 (0.07) mL/min/kg.
For the compound `CCCn1c(=O)c2[nH]c(C3(C)CCC3)nc2n(CCCF)c1=O` [MCBX], in series [1], the half-life at 8 µM was determined as 19.8 min and the CLint scaled at 8 µM is 204 mL/min/kg. For the same compound, the log partition coefficient (logP) in “Lipophilicity (log P)” is 2.82. Further, the “CLp Predicted (SD)” value in series [2] is on record as 7.76 (0.22) mL/min/kg.
For `CCCn1c(=O)c2[nH]c(C3CCC3)nc2n(CCC[18F])c1=O` [[^18F]CBX, 8-cyclobutyl-3-(3-[^18F]fluoropropyl)-1-propylxanthine], in series [2], the “Fold Error CL (ratio predicted/observed)” value is 0.84 and the “Fold Underprediction CL” value is recorded as 1.2. In addition, in series [3] (rat), the clearance amounted to 3.22 mL/min/kg, the Vd is 0.356 L/kg and the half-life was determined as 76.5 min. Besides, the “Parent fraction (authentic radiotracer of total plasma radioactivity)” value (shortened to “Parent fraction”) in series [3] was approximately 25%. The “Plasma level relative to [^18F]CPFPX” value in series [3] (rat, second and third phase of the curve (10-180 min p.i.)) is reported as “approximately twice as high”.
As for `CCCn1c(=O)c2[nH]c(C3CCCC3)nc2n(CCC[18F])c1=O` [[^18F]CPFPX, 8-cyclopentyl-3-(3-[^18F]fluoropropyl)-1-propylxanthine, reference compound], in series [2], the “Fold Error CL (ratio predicted/observed)” value is given as 0.66 and the “Fold Underprediction CL” value is reported as 1.5. The half-life in series [3] (0.39 nmol, rat) is approximately 50 min. For the same compound, in series [3] (rat), the clearance stood at 7.1 mL/min/kg, the Vd stood at 0.523 L/kg and the half-life turned out to be 51 min. In series [3], the “Parent fraction” value was “approximately 7%”.
As to `CCCn1c(=O)c2[nH]c(C3(C)CCC3)nc2n(CCC[18F])c1=O` [[^18F]MCBX, 3-(3-[^18F]fluoropropyl)-8-(1-methylcyclobutyl)-1-propylxanthine], in series [2], the “Fold Error CL (ratio predicted/observed)” value is reported as 0.85 and the “Fold Underprediction CL” value is given as 1.2. In series [3] (0.39 nmol, rat), the half-life was approximately 50 min. Besides, in series [3] (rat), the clearance turned out to be 9.1 mL/min/kg, the Vd is 0.715 L/kg and the half-life is 54.5 min. In series [3], the “Parent fraction” value is given as approximately 13%.
